Source: patent US6821980B1, “Substituted 5-benzyl-2,4-diaminopyrimidines” (Basilea Pharmaceutica AG, priority 1999, dated 2004)
In brackets after ≈: the same amount, converted by molar mass. Read-outs that look alike come from different tables or passages of the source.

Columns and labels:
[1] = target: T1, purified DHFR of strain Sp1/1 of Streptococcus pneumoniae (Streptococcus pneumoniae serotype 4, UniProt Q54801); assay type: biochemical; conditions: IC50 against purified DHFR of strain Sp1/1
T1 sequence (Q54801 1-168 I100L): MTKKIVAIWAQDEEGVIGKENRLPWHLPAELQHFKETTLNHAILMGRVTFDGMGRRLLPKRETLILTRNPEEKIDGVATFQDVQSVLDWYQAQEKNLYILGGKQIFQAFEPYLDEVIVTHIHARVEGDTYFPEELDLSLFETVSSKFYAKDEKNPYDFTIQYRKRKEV

[2] = target: purified DHFR of strain 157/4696 of Staphylococcus aureus (Staphylococcus aureus, UniProt P13955); experiment: biochemical
Chain of purified DHFR of strain 157/4696 of Staphylococcus aureus (P13955 whole entry): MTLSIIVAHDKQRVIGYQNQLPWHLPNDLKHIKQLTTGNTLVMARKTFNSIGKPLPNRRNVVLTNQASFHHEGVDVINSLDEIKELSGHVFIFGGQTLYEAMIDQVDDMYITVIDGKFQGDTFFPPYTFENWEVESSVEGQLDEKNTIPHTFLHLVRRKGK

[3] = system: Streptococcus pneumoniae 1/1; experiment: MIC against Streptococcus pneumoniae 1/1; assay type: cell-based; conditions: Streptococcus pneumoniae 1/1, trimethoprim- and penicillin-resistant, serotype 6, clinical isolate, read-out: MIC Sp1/1
[4] = system: Staphylococcus aureus 101; experiment: MIC against Staphylococcus aureus 101; assay type: cell-based; conditions: Staphylococcus aureus 101, MRSA- and trimethoprim-resistant, clinical isolate, read-out: MIC Sa101

Row | Compound | IC50 ([1]; Table 2) [nM] | IC50 [2] [nM] | MIC ([3]; Table 2) [µg/mL] | MIC ([4]; Table 2) [µg/mL] | IC50 ([1]; Table 1) [nM] | MIC ([3]; Table 1) [µg/mL] | MIC ([4]; Table 1) [µg/mL]
1 | CCOc1cc(Cc2cnc(N)nc2N)cc(OS(=O)(=O)C(C)C)c1-c1ccc(CN(C)C)c(N)c1 [Example 33-f, Propane-2-sulphonic acid 3′-amino-4-(2,4-diamino-pyrimidin-5-ylmethyl)-6-ethoxy-4′-dimethylaminomethyl-biphenyl-2-yl ester] | 89 | 42 | 8 (≈ 15.5 µM) | 2 (≈ 3.89 µM) | – | – | –
2 | CCOc1cc(Cc2cnc(N)nc2N)cc(OS(=O)(=O)C(C)C)c1-c1ccc(C)nc1 [Example 33-g, Propane-2-sulphonic acid 5-(2,4-diamino-pyrimidin-5-ylmethyl)-3-ethoxy-2-(6-methyl-pyridin-3-yl)-phenyl ester] | 76 | 980 | 8 (≈ 17.5 µM) | 4 (≈ 8.74 µM) | – | – | –
3 | CCOc1cc(Cc2cnc(N)nc2N)cc(OS(=O)(=O)C(C)C)c1-c1ccc(N)c(C)c1 [Example 33e, Propane-2-sulphonic acid 4′-amino-4-(2,4-diamino-pyrimidin-5-ylmethyl)-6-ethoxy-3′-methyl-biphenyl-2-yl ester] | – | 200 | – | – | 19 | 1 (≈ 2.12 µM) | 1 (≈ 2.12 µM)
4 | CCOc1cc(Cc2cnc(N)nc2N)cc(OS(=O)(=O)C2CC2)c1-c1cccc(N)c1 [Example 34-a, Cyclopropanesulphonic acid 3′-amino-4-(2,4-diamino-pyrimidin-5-ylmethyl)-6-ethoxy-bilphenyl-2-yl ester] | 9.2 | 270 | 1 (≈ 2.2 µM) | 2 (≈ 4.39 µM) | – | – | –
5 | CCOc1cc(Cc2cnc(N)nc2N)cc(OS(=O)(=O)C2CC2)c1-c1ccc(NC)cc1 [Example 34-b, Cyclopropanesulphonic acid 4-(2,4-diamino-Ryrimidin-5-ylmethyl)-6-ethoxy-4′-methylamino-biphenyl-2-yl ester] | 11 | 210 | 1 (≈ 2.13 µM) | 2 (≈ 4.26 µM) | – | – | –
6 | CCOc1cc(Cc2cnc(N)nc2N)cc(OS(=O)(=O)C2CC2)c1-c1cc(N)cc(F)c1 [Example 34-c, Cyclopropanesulphonic acid 3′-amino-4-(2,4-diamino-pyrimidin-5-ylmethyl)-6-ethoxy-5′-fluoro-biphenyl-2-yl ester] | 3.4 | 190 | 2 (≈ 4.22 µM) | 4 (≈ 8.45 µM) | – | – | –
7 | CCOc1cc(Cc2cnc(N)nc2N)cc(OS(=O)(=O)C2CC2)c1-c1ccc(N)c(C)c1 [Example 34-d, Cyclopropanesulphonic acid 4′-amino-4-(2,4-diamino-pyrimidin-5-ylmethyl)-6-ethoxy-3′-methyl-biphenyl-2-yl ester] | 2.4 | 140 | 1 (≈ 2.13 µM) | 2 (≈ 4.26 µM) | – | – | –
8 | CCOc1cc(Cc2cnc(N)nc2N)cc(OS(=O)(=O)C2CC2)c1-c1ccc(CN2CCOCC2)c(N)c1 [Example 34-e, Cyclopropanesulphonic acid 3′-amino-4-(2,4-diamino-pyrimidin-5-ylmethyl)-6-ethoxy-4′-morpholin-4-ylmethyl-biphenyl-2-yl ester] | 15 | 140 | 4 (≈ 7.21 µM) | 4 (≈ 7.21 µM) | – | – | –
9 | CCOc1cc(Cc2cnc(N)nc2N)cc(OS(=O)(=O)C2CC2)c1-c1ccc(C)c(N)c1 [Example 34-f, Cyclopropanesulphonic acid 3′-amino-4-(2,4-diamino-pyrimidin-5-ylmethyl)-6-ethoxy-4′-methyl-biphenyl-2-yl ester] | 9.5 | 97 | 1 (≈ 2.13 µM) | 2 (≈ 4.26 µM) | – | – | –
10 | CCOc1cc(Cc2cnc(N)nc2N)cc(OS(=O)(=O)C(C)CC)c1-c1ccc(N)c(F)c1 (stereo not shown) [Example 35-b, Butane-2-sulphonic acid 4′-amino-4-(2,4-diamino-pyrimidin-5-ylmethyl)-6-ethoxy-3′-fluoro-biphenyl-2-yl ester] | 9 | 130 | 0.5 (≈ 1.02 µM) | 2 (≈ 4.09 µM) | – | – | –
11 | CCOc1cc(Cc2cnc(N)nc2N)cc(OS(=O)(=O)C(C)CC)c1-c1ccc(CN2CCOCC2)c(N)c1 (stereo not shown) [Example 35-c, Butane-2-sulphonic acid 3′-amino-4-(2,4-diamino-pyrimidin-5-ylmethyl)-6-ethoxy-4′-morpholin-4-ylmethyl-biphenyl-2-yl ester] | 4.6 | 43 | 1 (≈ 1.75 µM) | 2 (≈ 3.5 µM) | – | – | –
12 | CCOc1cc(Cc2cnc(N)nc2N)cc(OS(=O)(=O)C(C)CC)c1-c1ccc(OC)c(N)c1 (stereo not shown) [Example 35-d, Butane-2-sulphonic acid 3′-amino-4-(2,4-diamino-gyrimidin-5-ylmethyl)-6-ethoxy-4′-methoxy-biphenyl-2-yl ester] | 4.3 | 95 | 1 (≈ 1.99 µM) | 2 (≈ 3.99 µM) | – | – | –
13 | CCOc1cc(Cc2cnc(N)nc2N)cc(OS(=O)(=O)C(C)CC)c1-c1ccc(NCCO)cc1 (stereo not shown) [Example 35-f, Butane-2-sulphonic acid 4-(2,4-diamino-pyrimidin-5-ylmethyl)-6-ethoxy-4′-(2-hydroxy-ethylamino)-biphenyl-2-yl ester] | 8.5 | 120 | 0.5 (≈ 0.97 µM) | 4 (≈ 7.76 µM) | – | – | –
14 | CCOc1cc(Cc2cnc(N)nc2N)cc(OS(=O)(=O)C(C)CC)c1-c1ccc(N)cc1 (stereo not shown) [Example 35a, Butane-2-sulphonic acid 4′-amino-4-(2,4-diamino-pyrimidin-5-ylmethyl)-6ethoxy-biphenyl-2-yl ester] | – | 110 | – | – | 3.7 | 0.5 (≈ 1.06 µM) | 2 (≈ 4.24 µM)
15 | CCOc1cc(Cc2cnc(N)nc2N)cc(OS(=O)(=O)C(C)CC)c1-c1ccc(N)c(C)c1 (stereo not shown) [Example 35e, Butane-2-sulphonic acid 4′-amino-4-(2,4-diamino-pyrimidin-5-ylmethyl)-6-ethoxy-3′-methyl-biphenyl-2-yl ester] | – | 62 | – | – | 4.6 | 0.5 (≈ 1.03 µM) | 1 (≈ 2.06 µM)
16 | CCOc1cc(Cc2cnc(N)nc2N)cc(OS(=O)(=O)CC(C)C)c1-c1ccc(N)c(C)c1 [Example 36-a, 2-Methyl-propane-1-sulphonic acid 4′-amino-4-(2,4-diamino-pyrimidin-5-ylmethyl)-6-ethoxy-3′-methyl-biphenyl-2-yl ester] | 3.3 | 32 | 0.25 (≈ 0.515 µM) | 2 (≈ 4.12 µM) | – | – | –
17 | CCOc1cc(Cc2cnc(N)nc2N)cc(OS(=O)(=O)CC(C)C)c1-c1ccc(N)c(F)c1 [Example 36-b, 2-Methyl-propane-1-sulphonic acid 4′-amino-4-(2,4-diamino-pyrimidin-5-ylmethyl)-6-ethoxy-3′-fluoro-biphenyl-2-yl ester] | 5.8 | 230 | 0.5 (≈ 1.02 µM) | 8 (≈ 16.3 µM) | – | – | –
18 | CCOc1cc(Cc2cnc(N)nc2N)cc(OS(=O)(=O)CC(C)C)c1-c1ccc(N)cc1 [Example 36-c, 2-Methyl-propane-1-sulphonic acid 4′-amino-4-(2,4-diamino-pyrimidin-5-ylmethyl)-6-ethoxy-biphenyl-2-yl ester] | 4.8 | 240 | 0.5 (≈ 1.06 µM) | 2 (≈ 4.24 µM) | – | – | –
19 | CCOc1cc(Cc2cnc(N)nc2N)cc(OS(=O)(=O)CC(C)C)c1-c1ccc(OC)c(N)c1 [Example 36-d, 2-Methyl-prooane-1-sulphonic acid 3′-amino-4-(2,4-diamino-pyrimidin-5-ylmethyl)-6-ethoxy-4′-methoxy-biphenyl-2-yl ester] | 0.68 | 66 | 0.5 (≈ 0.997 µM) | 2 (≈ 3.99 µM) | – | – | –
